Consider seven molecules from ChEMBL document CHEMBL4007496, “Isolation and characterization of diterpene glycosides from Siegesbeckia pubescens” (Bioorg Med Chem Lett, 2017).

As usually defined, the IC50 is the concentration at which inhibition is half-maximal.

The subject of one assay is RAW264.7. Kind of assay: Antiinflammatory activity in mouse RAW264.7 cells assessed as inhibition of LPS-induced nitric oxide production preincubated for 30 mins followed by LPS challenge measured after 24 hrs by Griess assay. The format is functional, cell-based. (In general: Nitrite, measured by Griess reagent, commonly stands in for NO production.)
Another assay deals with MDA-MB-231. Briefly: Inhibition of EGF-induced invasion of human MDA-MB-231 cells by MTT assay. Type of assay: functional, cell-based. (In general: Tetrazolium assays rely on reduction of a dye to a coloured formazan, in cell work by metabolically active cells.)

For `CC1(C)[C@H]2CCC3=C[C@@](C)([C@@H](O)CO)CC[C@H]3[C@]2(C)CC[C@H]1O[C@@H]1O[C@H](CO)[C@@H](O)[C@H](O)[C@H]1O`, the figures for the IC50 with RAW264.7 and in the assay with MDA-MB-231 were greater than 100 µM and greater than 25 µM, respectively.
On to `C=C1C[C@]23CC[C@@H]4[C@](C)(CO[C@@H]5O[C@H](CO)[C@@H](O)[C@H](O)[C@H]5O)CC(=O)C[C@@]4(C)[C@@H]2CC[C@@]1(O)C3`, for which the IC50 was greater than 100 µM in the assay with RAW264.7 and 26.8 µM in the assay on MDA-MB-231.
Turning to `CC1(C)[C@H]2CCC3=C[C@@](C)(C=O)CC[C@H]3[C@]2(C)CC[C@H]1O[C@@H]1O[C@H](CO)[C@@H](O)[C@H](O)[C@H]1O`, the IC50 with RAW264.7 was greater than 100 µM; with MDA-MB-231, greater than 25 µM.
Consider `CC1(C)[C@H](O)CC[C@@]2(C)[C@@H]3CC[C@](C)([C@@H](O)CO)C=C3CC[C@H]12` [DARUTIGENOL], for which, in the assay on MDA-MB-231, the IC50 was greater than 25 µM.
On to `CC1(C)[C@H]2CCC3=C(CC[C@](C)([C@@H](O)CO)C3)[C@]2(C)CC[C@H]1O[C@@H]1O[C@H](CO)[C@@H](O)[C@H](O)[C@H]1O`, for which the IC50 in the assay on RAW264.7 was greater than 100 µM; in the assay with MDA-MB-231, greater than 25 µM.
On to `CC1(C)[C@@H](O[C@@H]2O[C@H](CO)[C@@H](O)[C@H](O)[C@H]2O)CC[C@@]2(C)[C@@H]3CC[C@](C)([C@@H](O)CO)C=C3CC[C@H]12`, for which the IC50 in the assay with RAW264.7 was greater than 100 µM; in the assay with MDA-MB-231 it was 24.8 µM.
The matching figures for `CC1(C)[C@H]2CCC3=C[C@@](C)([C@H](O)CO)CC[C@H]3[C@]2(C)CC[C@H]1O[C@@H]1O[C@H](CO)[C@@H](O)[C@H](O)[C@H]1O`: greater than 100 µM and 0.27 µM.
